Tests used:
[1] = system: Neomycin-bindender Riboschalter (2FA-markiert) (RNA, riboswitch, 2-fluoroadenine at 16, 17 and 24) GGCUGCUUGUCCUUUAAUGGUCCAGCC; assay: 19F NMR titration and CEST; conditions: 303 K; 215-1200 µM samples, 1 to 1.5 equivalents of ligand
[2] = system: Neomycin-bindender Riboschalter (2FA-markiert) (RNA, riboswitch, 2-fluoroadenine at 16, 17 and 24) GGCUGCUUGUCCUUUAAUGGUCCAGCC; assay: 19F NMR CEST; conditions: 303 K; derived from kex = [L]kon + koff = 88 ± 8 s^-1; subsaturating ligand

Row | SMILES | binding [1] | koff [2]
1 | NC[C@@H]1O[C@H](O[C@H]2[C@@H](O)[C@H](O[C@@H]3[C@@H](O)[C@H](N)C[C@H](N)[C@H]3O[C@H]3O[C@H](CN)[C@@H](O)[C@H](O)[C@H]3N)O[C@@H]2CO)[C@H](N)[C@@H](O)[C@@H]1O | yes | –
2 | NC[C@H]1O[C@H](O[C@H]2[C@H](O[C@@H]3O[C@H](CO)[C@@H](O)[C@H]3O)[C@@H](O)[C@H](N)C[C@@H]2N)[C@H](N)[C@@H](O)[C@@H]1O | – | ~ 1.4 s^-1

— PMC10953372 (2023)
